Experimental findings from patent US4312866A, “Use of rifamycin SV and its related salts in the treatment of rheumatoid arthritis, and related formulations suited for the purpose” (priority 1979, dated 1982) are described below.

“Also recorded” adds a separate entry of the source. Where a name gives a salt, the structure may show the parent alone.

Data set [1] has as its system joint sites other than the knee (wrist, hand's metacarpophalangeal and interphalangeal joints, tibiotarsal joints, etc). Put plainly: Infiltrations into joint sites other than the knee. Format: in vivo, patients. Conditions: approximately 300 joints. From the text: (§1) Two of the 75 patients had to stop the treatment because of the above mentioned untoward side effect.

Data set [2] can be described thus: pH of aqueous solutions of the salts. Format: physicochemical.
Data set [3] concerns persistent effusions in one or both knees.
Description: In a second clinical experimental course, 75 patients, presenting with persistent effusions in one or both knees were given 500 mg of rifamycin SV (in the form of a L-arginine salt) every seven days, still by intra-articular injection.
The subject of data set [4] is rabbit's spinal sac. Put plainly: Local tolerability after injection into the rabbit's spinal sac. Format: in vivo. Conditions: 60-mg injection once daily for three consecutive days, versus commercial solutions of rifamycin SV.
Data set [5] can be described thus: clinical. The settings on record: in vivo. As to the method: (§2) The rifamycin levels, present in the biological fluids of treated patients, were assayed by high pressure liquid chromatography (HPLC), a method more reliable and reproducible than the ultraviolet or microbiological method.
(§3) The synovial fluid samples were directly injected into the chromatograph after precipitation of the proteins with acetonitrile on the other hand, the serum samples had to be previously extracted with ethyl acetate at an acid pH.
(§4) A Hewlett Packard chromatograph is used, model 104 B, fitted with a fixed wave length detector (254 nm); RP 18 (10 mc) column, 25-cm length, […].
(§5) The following eluent is used: (A) an 80:20 mixture of 0.01 M phosphate buffer at pH 7 and acetonitrile; (B) acetonitrile. The gradient shifts from the 10 percent of B to the 70 percent of B within 15 minutes; the flow is 1.6 ml/minute.
(§6) The temperature of the oven is 35° C.; that of the eluent A is 60 percent and the one of the eluent B 40 percent.
(§7) Rifamycin SV and its oxidized form, ie rifamycin S, are used as standard.
In order to establish the standard lines in the synovial fluid, 500 mg of each single compound are dissolved in one liter exactly of a 1:1 water-methanol mixture.
(§8) The two absorption lines are made up injecting 5 mcl, 10 mcl and 15 mcl of said solutions into the chromatograph.
Determination of rifamycin SV in the synovial fluid
This determination is directly carried out on the deproteinized synovial fluid. 200 mcl of sample are introduced into a centrifuge test tube, and added with 2 ml of acetonitrile.
The resulting solution is stirred, and allowed to decant; 20 mcl of supernatant fluid are thereafter injected into the chromatograph. The samples are analyzed immediately in order to prevent the oxidation of rifamycin SV into rifamycin S.
(§9) The data are expressed as mcg/ml.

The nature of data set [6]: Rifamycin levels in monoarthritic guinea-pig after intra-articular administration. In kind it is in vivo. The settings on record: monoarthritic guinea-pig (gamma-globulin arthritis). From the text: The observation that in the monoarthritic guinea-pig (gamma-globulin arthritis) rifamycin arginine salt levels, 10 times higher than in the case of rifamycin sodium salt, can be observed following an intra-articular administration of either rifamycin sodium salt or arginine salt, proves in full agreement with the above mentioned datum.

A short description of data set [7]: Comparison of synovial fluid rifamycin levels, sodium salt vs arginine salt (Table 2). In kind it is in vivo, patients. The settings on record: equivalent to 500 mg rifamycin SV; for concentration at 5 min / concentration at 1 h / concentration at 2 h / concentration at 4 h / concentration at 8 h: human, synovial fluid, mean of eight determinations.
A short description of data set [8]: Solubility of the salts. Format: physicochemical.
Data set [9] can be described thus: Stability of solutions and lyophilyzed salts. Format: physicochemical. Conditions: dry state.
Data set [10] has as its system cultures of synovial membrane fragments. Kind of data set: Inhibiting activity on cultures of synovial membrane fragments. Format: cell-based. Conditions: needle biopsy, patients with suspected rheumatoid arthritis.
Description: as §1

Data set [11] has as its system rheumatoid synovitis. Kind of data set: Clinical trials (open and double-blind) in rheumatoid synovitis. Format: in vivo, patients. As to the method:
The effects of intra-articular injections of rifamycin SV solutions in rheumatoid synovitis were assessed in two clinical trials, one carried out according to an open technique and the other one according to a double-blind experimental design. A total of 35 patients was treated, with an intra-articular injection of 200-500 mg weekly, for a maximum of 10 weeks. The patients were followed up for three years. The following laboratory diagnostic tests were made weekly on the synovial fluids: white blood cell differential count, RA test, Waaler-Rose test, latex test, immunoglobulins, T and B lymphocytes, C3 and C4 levels, glucose, acid phosphatase.
Bioptic examinations were carried out both before and after various months (1-18) after the start of the treatment.

In data set [12] the test system is rheumatoid arthritis. Kind of data set: Intra-articular injections in rheumatoid arthritis (general statement). Format: in vivo. The settings on record: rheumatoid arthritis patients.
The conditions of data set [13]: in vivo. As to the method: as §2, §3, §4, §5, §6, §7, §8
The previous solutions are ten-fold diluted in the case of sera standard lines; the above mentioned operations are thereafter repeated.
Determination of Rifamycin in the Serum […]
as §9

The mark [14] stands for this setting: synovial fluid, end of the treatment.

For the compound `COC1C=COC2(C)Oc3c(C)c(O)c4c(O)c(cc(O)c4c3C2=O)NC(=O)C(C)=CC=CC(C)C(O)C(C)C(O)C(C)C(OC(C)=O)C1C` [L-arginine salt of rifamycin SV, rifamycin SV salt with arginine], in data set [1], the “analgesic and anti-inflammatory activity” value was “potent analgesic and anti-inflammatory activity”; the joint function result is reported as “overall improvement of joint function”; the morning stiffness result was “marked reduction, and quite often in a complete subsidence”. Also, the “pH of 10 percent aqueous solution” value in data set [2] (10 percent aqueous solution) came to 6.7. Moreover, the “patients with complete subsidence of effusions and marked clinical improvement” value in data set [3] (500 mg rifamycin SV every seven days intra-articular, of 75 patients) is on record as “seventy-two”. Also, the “patients with effusional relapse” value in data set [3] (1-6 months after the start of the treatment) was determined as 3 patients. For the same compound, the “patients not responding to 12 infiltrations” value in data set [3] (12 infiltrations) was “one”. Besides, the synovial fluid leukocytes entry in [3] (P<0.001) is recorded as “significant decrease”. Besides, the “C3 and C4 complemental fractions in synovial fluid” value in [3] (P<0.005) is listed as “increase”. The “relation of number of infiltrations with activity of the local synovitis” value in data set [3] (P<0.05) is “strictly related”. In addition, in data set [3] (out of 72), the “patients requiring 1-3 infiltrations to induce effusion subsidence” value worked out at 12 patients, the “patients requiring 4-6 infiltrations to induce effusion subsidence” value worked out at 33 patients and the “patients requiring 7-12 infiltrations to induce effusion subsidence” value is reported as 27 patients. Besides, the local tolerability result in data set [4] was “optimal and definitely better than that observed in the case of commercial solutions”. In data set [5] (human), this compound yielded a concentration at 0.25 h of 4930 ± 550 µg/mL. Further, the “rifamycin arginine salt levels vs rifamycin sodium salt” value in data set [6] was 10 times higher. For the same compound, in data set [7] (intra-articular), the “synovial fluid levels compared with sodium salt” value is recorded as “marked superiority”. Moreover, in [7], the concentration at 5 min was determined as 7160 ± 2100 µg/mL, the concentration at 1 h came to 3850 ± 800 µg/mL, the concentration at 2 h was 1730 ± 1000 µg/mL and the concentration at 4 h stood at 750 ± 300 µg/mL. In addition, in [7], the concentration at 8 h came to 173 ± 100 µg/mL. Moreover, in data set [8] (listed as arginine salt), the solubility in acetone result was “highly soluble”, the “solubility in ethyl acetate” value is recorded as “sparingly soluble”, the solubility in methanol entry is “highly soluble” and the solubility in water entry is listed as “highly soluble”. In addition, the solubility in chloroform entry in [8] (chloroform) is recorded as “sparingly soluble”. Also, the solubility in water result in data set [8] (listed as arginine salt of rifamycin SV) is “optimal water solubility properties”.

In the case of `COC1C=COC2(C)Oc3c(C)c(O)c4c(O)c(cc(O)c4c3C2=O)NC(=O)C(C)=CC=CC(C)C(O)C(C)C(O)C(C)C(OC(C)=O)C1C` (centres unmarked) [histidine salt, rifamycin SV salt with histidine], the “pH of 20 percent aqueous solutions” value in data set [2] (20 percent aqueous solutions) is 6.4-6.7. Further, in data set [8], the solubility in acetone entry was “good”, the “solubility in ethyl acetate” value was “practically nil”, the solubility in methanol entry is recorded as “high” and the solubility in water entry was “high”. Moreover, the solubility in benzene result in data set [8] (benzene) is on record as “practically nil”. Also, the solubility in ethanol result in data set [8] (ethanol) is given as “good”. In data set [8] (ether), the solubility in ether entry is listed as “practically nil”. For the same compound, the solubility in isopropanol result in [8] (isopropanol) was “practically nil”.

As for `CO[C@H]1/C=C/O[C@@]2(C)Oc3c(C)c(O)c4c(O)c(cc(O)c4c3C2=O)NC(=O)/C(C)=C\C=C\[C@H](C)[C@H](O)[C@@H](C)[C@@H](O)[C@@H](C)[C@H](OC(C)=O)[C@@H]1C` [rifamycin SV sodium salt, reference compound], the “preservation of lyophilyzed salt” value in data set [9] is recorded as “can be preserved for years at room temperature”. In [7], the concentration at 5 min was 6700 ± 200 µg/mL, the concentration at 1 h stood at 1530 ± 490 µg/mL, the concentration at 2 h is 485 ± 180 µg/mL and the concentration at 4 h was found to be 439 ± 180 µg/mL. In [7], the concentration at 8 h is 140 ± 67 µg/mL. The solubility in water result in data set [8] is given as “scarcely soluble in water”.

For the compound `COC1C=COC2(C)Oc3c(C)c(O)c4c(O)c(cc(O)c4c3C2=O)NC(=O)C(C)=CC=CC(C)C(O)C(C)C(O)C(C)C(OC(C)=O)C1C` (centres unmarked) [rifamycin SV], in data set [3] (human, in vivo), the initial local pain result is listed as “majority of the patients”, the “patients who had to stop the treatment because of side effect” value is listed as “Two” and the “patients with local retarded painful reaction” value was 28 patients. The “inhibiting activity on cultures of synovial membrane fragments” value in data set [10] is on record as “inhibiting activity of rifamycin SV was demonstrated”. Also, in [5], the “diffusion of rifamycin SV injected into the joint” value is reported as “scarce diffusion” and the “rifamycin species present in the synovial fluid” value is on record as “Only rifamycin SV is present in the synovial fluid”. In addition, the “patients with reappearance of exudate” value in data set [11] (35 patients, followed up for three years) was “two”. Moreover, the disappearance of exudate entry in data set [11] (200-500 mg weekly intra-articular, maximum 10 weeks) was “completely disappeared after the third and within the tenth instillation”. Besides, the “histological variations of the knees” value in [11] (biopsies before and 1-18 months after start of treatment) was “reduction of synovial cell infiltrates; also recorded: increase of newly-formed connective tissue; also recorded: surrounding areas with a residual hyperplastic synovia; also recorded: depositions of a new partially organized fibrin”. The immunological parameters entry in data set [11] (end of the treatment) was “No variations”. In data set [11] (setting [14]), the RA cells entry is listed as “significant drop”, the polymorphocyte percentage entry was “significant drop” and the total leukocytes result is “significant drop”. In [12], the “resolution of the pathologic condition” value is recorded as “rapid resolution of the pathologic condition as well as to the patient's complete cure”.

On to `COC1C=COC2(C)Oc3c(C)c(O)c4c(c3C2=O)C(=O)C=C(NC(=O)C(C)=CC=CC(C)C(O)C(C)C(O)C(C)C(OC(C)=O)C1C)C4=O` (centres unmarked) [rifamycin S], for which, in data set [13], the “rifamycin species present in the serum” value is “serum also contains rifamycin S”.
